Source: article PMC10636063, “Progesterone activation of β1-containing BK channels involves two binding sites” (Nature Communications, 2023)
Where “and” joins values, the source holds several entries; their conditions need not be identical. Equal values may be shown once.

Columns and labels:
cbv1+β1Y42V = biological target: T1, cbv1+β1Y42V (Rattus norvegicus, UniProt P97678, Y42V); assay: Channel activity (NPo) in POPE/POPS bilayers, cbv1+β1Y42V; type: biochemical
T1 construct: made in house; host or cells: CHO cells, transient transfection; sucrose-gradient membrane preparation
T1 sequence (P97678 whole entry Y42V): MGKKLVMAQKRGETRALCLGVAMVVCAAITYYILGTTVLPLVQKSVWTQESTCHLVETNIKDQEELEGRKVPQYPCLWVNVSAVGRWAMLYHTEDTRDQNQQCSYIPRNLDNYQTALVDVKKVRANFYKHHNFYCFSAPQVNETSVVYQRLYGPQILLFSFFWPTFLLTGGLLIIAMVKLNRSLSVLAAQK
T1 sequence (Q62976 1-1148 isoform Q62976-2 partner): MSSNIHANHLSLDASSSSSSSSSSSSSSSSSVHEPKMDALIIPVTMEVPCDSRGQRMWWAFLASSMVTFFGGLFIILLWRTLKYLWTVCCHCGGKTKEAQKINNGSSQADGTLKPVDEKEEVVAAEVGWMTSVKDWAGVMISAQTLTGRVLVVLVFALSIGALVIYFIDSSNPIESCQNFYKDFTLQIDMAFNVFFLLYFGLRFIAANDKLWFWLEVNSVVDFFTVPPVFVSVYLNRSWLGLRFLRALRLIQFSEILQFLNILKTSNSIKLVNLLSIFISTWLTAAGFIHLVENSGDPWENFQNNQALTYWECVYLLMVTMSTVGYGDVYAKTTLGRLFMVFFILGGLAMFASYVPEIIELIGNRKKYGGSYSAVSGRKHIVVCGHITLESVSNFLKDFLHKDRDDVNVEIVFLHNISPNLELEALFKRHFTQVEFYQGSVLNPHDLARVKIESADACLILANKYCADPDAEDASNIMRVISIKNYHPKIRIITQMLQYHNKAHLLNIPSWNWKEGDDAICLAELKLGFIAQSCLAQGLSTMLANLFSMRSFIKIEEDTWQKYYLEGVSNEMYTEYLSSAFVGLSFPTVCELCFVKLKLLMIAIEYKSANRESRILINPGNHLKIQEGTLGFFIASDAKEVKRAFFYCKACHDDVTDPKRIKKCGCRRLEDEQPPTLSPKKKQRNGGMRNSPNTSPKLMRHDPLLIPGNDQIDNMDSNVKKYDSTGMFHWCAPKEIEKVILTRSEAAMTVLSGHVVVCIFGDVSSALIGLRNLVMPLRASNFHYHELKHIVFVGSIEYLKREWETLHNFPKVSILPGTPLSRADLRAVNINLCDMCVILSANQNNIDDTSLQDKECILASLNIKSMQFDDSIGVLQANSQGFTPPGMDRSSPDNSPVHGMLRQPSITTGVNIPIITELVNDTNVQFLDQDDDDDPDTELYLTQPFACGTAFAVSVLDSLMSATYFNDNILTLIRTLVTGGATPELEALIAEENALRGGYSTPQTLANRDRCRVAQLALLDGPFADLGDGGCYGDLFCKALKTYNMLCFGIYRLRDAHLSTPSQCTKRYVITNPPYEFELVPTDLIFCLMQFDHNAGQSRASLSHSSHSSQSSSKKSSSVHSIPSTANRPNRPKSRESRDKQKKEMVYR
From the text: (§1) BK channel-forming slo1 cDNA (cbv1 isoform; AY330293) was cloned from rat cerebral artery SM cells, and inserted into pcDNA3.1 vector as described. BK β1 cDNA (KCNMB1 product; NP_011452; FJ154955) were isolated from rat cerebral artery SM cells and cloned as described. β4 cDNA (KCNMB4; NP_055320; AY028605) were generously provided by Dr. Ligia Toro. CHO cells were transiently transfected with cbv1 ± β1-, or β4-carrying pcDNA3.1 using X-tremeGENE HP (Sigma-Aldrich). […]
(§2) Proteins for electrophysiological recordings in artificial lipid bilayers remained untagged. […] BK channel-mediated ionic current was recorded in planar lipid bilayers consisting of a POPE:POPS 3:1 (w/w) mixture. […]
(§3) Patch-clamp and bilayer data were analyzed using Clampfit 10.7 software (Molecular Devices). […] Drug-induced NPo changes were determined by comparing baseline NPo (i.e., NPo with the patch/cell perfused with bath solution) to the NPo from the same patch/cell exposed to the agent under study (DMSO/PROG/oxime) dissolved in bath solution. NPo and mean open time values were automatically calculated using Clampfit 10.7, the latter using a 50% threshold detection event.

cbv1+β1W87F = biological target: T2, cbv1+β1W87F (Rattus norvegicus, UniProt P97678, W87F); assay: Channel activity (NPo) in POPE/POPS bilayers, cbv1+β1W87F; type: biochemical
T2 construct: made in house; host or cells: CHO cells, transient transfection; sucrose-gradient membrane preparation
T2 sequence (P97678 whole entry W87F): as the sequence (P97678 whole entry Y42V) above, with V42Y, W87F counted along it
T2 sequence (Q62976 1-1148 isoform Q62976-2 partner): as the sequence (Q62976 1-1148 isoform Q62976-2 partner) above
From the text: as §1, §2, §3

SMILES: CC(=O)[C@H]1CC[C@H]2[C@@H]3CCC4=CC(=O)CC[C@]4(C)[C@H]3CC[C@]12C [PROG, Progesterone]
- action on channel activity (NPo) (cbv1+β1Y42V; 10 µM, vs DMSO): significantly activated
- channel activity (NPo) with prog, normalized (cbv1+β1Y42V; SFig3A, cbv1+y42v, individual bilayers): 1.4717 and 1.041 and 1.9292 and 1.306 and 1.182
- action on channel activity (NPo) (cbv1+β1W87F; 10 µM, vs vehicle): effectively abolished PROG action
- normalized NPo, time course Fig 4E (cbv1+β1W87F; cbv1+w87F prog, time 1 min (normalisation reference)): 1
